# Test results from patent publication US7939509B2, “Partial and full agonists of A1 adenosine receptors” (Gilead Sciences, Inc., priority 2002, dated 2011).
# Tests used:
# awake rats = assay: Anti-lipolytic effect: serum free fatty acids (FFA) in overnight-fasted awake rats; format: in vivo, rat
# Method: All experimental procedures were performed under a protocol approved by the Institutional Animal Care and Use Committee of CV Therapeutics, Inc., and in accordance with the recommendations set forth in the Guide for the Care and Use of Laboratory Animals published by the National Research Council. Male Sprague-Dawley rats (225-250 gm) with either one or two indwelling catheters (carotid and jugular) were purchased from Charles River Laboratories (Wilmington, Mass.). Animals were housed 1 per cage in a room maintained on a 12 h light/dark cycle (light on 06.00-18.00 h) under constant temperature (22-25° C.) and with ad libitum access to food and water. The anti-lipolytic effects of Compound A were studied in awake rats. Animals were fasted overnight before experimental use. On the day of the experiment, animals were put in metabolic cages and left undisturbed to acclimate to the environment for 1-2 hrs. An infusion set (21 G×¾″, 0.8×19 mm U.T.W., 3½″, 9 cm tubing, volume 0.15 ml) was connected to the arterial catheter for blood sampling. A 1% sodium citrate saline solution was used to flush the lines. A pre-treatment blood sample was obtained from each animal to determine baseline values for FFA and TG. Compound A was given via oral gavage, sc injection, iv injection, or iv infusion, as described, for each different series of experiments. Blood samples were collected into serum separator tubes (Becton Dickinson, Franklin Lakes, N.J.) at pre-determined times, Blood was allowed to clot, and then centrifuged at 8000 rpm for 4 min at 4° C. The serum was stored at −80° C. and was thawed at 4° C. for determinations of FFA and TG contents. […] Sodium citrate and Triton WR1339 were purchased from Sigma (St. Louis, Mo.). Nicotinic acid and PEG 400 were purchased from VWR (by EMD Chemicals). Triton WR 1339 was diluted in warm saline (˜37° C.) with frequent vortexing. […] Compound A was dissolved in PEG 400, and then diluted with distilled water to make a 20% PEG drug solution. Serum FFA and TGs were measured using commercial kits from Wako Chemicals, Richmond, Va. Glucose and Insulin were measured using commercial kits from Wako Chemicals USA (Richmond, Va.). All data are reported as mean±SEM. Statistical analysis of data from experiments with 2 treatment groups was performed using the unpaired Student's t-test. Two way analysis of variance followed by Bonferroni's test was used for multiple comparisons.
# normal rats = assay: Triglyceride production after Triton WR 1339 injection in rats; format: in vivo, rat
# Method: FIG. 3 graphs the time-dependent increase of TG caused by Triton […] in the absence or presence of Compound A as described in Example 31. After a 4 hour fast, rats received either vehicle or Compound A (5 mg/kg) via SC injection. After 5 minutes, Triton (400 mg/kg) was given as a slow intravenous bolus. Data are presented as ±SEM of values from 7-8 animals. Slope of the lines (determined by linear regression analysis) was 5.6±0.1 and 3.8±0.2 for vehicle and Compound A groups, respectively. Data were analyzed using 2 way ANOVA followed by Bonferroni's post hoc test.
# The anti-lipolytic effects of Compound A were studied in awake rats. Animals were fasted overnight before experimental use. On the day of the experiment, animals were put in metabolic cages and left undisturbed to acclimate to the environment for 1-2 hrs. An infusion set (21 G×¾″, 0.8×19 mm U.T.W., 3½″, 9 cm tubing, volume 0.15 ml) was connected to the arterial catheter for blood sampling. A 1% sodium citrate saline solution was used to flush the lines. A pre-treatment blood sample was obtained from each animal to determine baseline values for FFA and TG. Compound A was given via oral gavage, sc injection, iv injection, or iv infusion, as described, for each different series of experiments. Blood samples were collected into serum separator tubes (Becton Dickinson, Franklin Lakes, N.J.) at pre-determined times, Blood was allowed to clot, and then centrifuged at 8000 rpm for 4 min at 4° C. The serum was stored at −80° C. and was thawed at 4° C. for determinations of FFA and TG contents.
# Compound A was synthesized by the Department of Medicinal and Bio-Organic chemistry of CV Therapeutics, Inc. Sodium citrate and Triton WR1339 were purchased from Sigma (St. Louis, Mo.). […] Serum FFA and TGs were measured using commercial kits from Wako Chemicals, Richmond, Va. Glucose and Insulin were measured using commercial kits from Wako Chemicals USA (Richmond, Va.).
# To further investigate the mechanism of the decrease in TG levels by Compound A, total TG production was measured in normal rats. […]
smiles,measurement,setting,value
"O[C@@H]1[C@H](O)[C@@H](CSc2ccccc2F)O[C@H]1n1cnc2c(N[C@@H]3CCC[C@H]3O)ncnc21 [Compound A, 2-{6-[((1R,2R)-2-hydroxycyclopentyl)amino]purin-9-yl}(4S,5S,2R,3R)-5-[(2-fluorophenylthio)methyl]oxolane-3,4-diol]",maximal decrease in FFA levels,awake rats; 1 mg/kg iv bolus,54±5%
same,FFA level after treatment,"awake rats; 1 mg/kg iv bolus, from 0.79±0.04 mM, p<0.001",0.36 ± 0.05 mM
same,FFA level after first iv injection,"awake rats; 1 mg/kg iv, first of three repeated injections, baseline 0.88±0.02 mM",0.35 ± 0.04 mM
same,FFA level after second iv injection,"awake rats; 1 mg/kg iv, second of three repeated injections, baseline 0.88±0.02 mM",0.35 ± 0.03 mM
same,FFA level after third iv injection,"awake rats; 1 mg/kg iv, third of three repeated injections, baseline 0.88±0.02 mM",0.38 ± 0.03 mM
same,decrease in FFA below baseline,awake rats; 2.5 mg/kg oral gavage,31%
same,FFA level after treatment,"awake rats; 2.5 mg/kg oral gavage, from baseline 0.7±0.05 mM, p<0.05",0.5 ± 0.03 mM
same,decrease in FFA levels,awake rats; 5 mg/kg oral gavage,47%
same,FFA level after treatment,"awake rats; 5 mg/kg oral gavage, from 0.8±0.04 mM, p<0.01",0.4 ± 0.03 mM
same,decrease in FFA levels,awake rats; 10 mg/kg oral gavage,57%
same,FFA level after treatment,"awake rats; 10 mg/kg oral gavage, from 0.68±0.04 mM, p<0.001",0.29 ± 0.02 mM
same,duration of the effect to suppress lipolysis,"awake rats; 2.5, 5, 10 mg/kg oral gavage",dose-dependent
same,"lowering of FFA levels, dose dependence","awake rats; 2.5, 5, 10 mg/kg oral gavage",dose-dependent manner
same,rebound increase of FFA levels,awake rats; after iv bolus,not observed
same,acute tachyphylaxis of the FFA lowering effect,"awake rats; three repeated iv injections, 1 mg/kg",did not undergo acute tachyphylaxis
same,increase in serum TG caused by Triton vs vehicle-treated animals,"normal rats; 180 minutes post-treatment, p<0.01",significantly less
same,slope of the time-dependent TG increase caused by Triton (linear regression),"normal rats; FIG. 3 legend: 5 mg/kg SC, Triton 400 mg/kg iv, 4 hour fast, vehicle 5.6±0.1",3.8±0.2
same,"TG accumulation, slope of the line (linear regression)","normal rats; text: Triton 600 mg/kg, vehicle printed as 3.8±0.17, p<0.001",5.6 ± 0.12 mg/dL/min
